Paper PMC11232401, “Characterization of antimalarial activity of artemisinin-based hybrid drugs” (Antimicrobial Agents and Chemotherapy, 2024)
Like-named read-outs stand apart in the source and are kept apart here.

Key:
[1] = tested on: F32-ART (ART-resistant) strain of P. falciparum; assay: Standard chemosensitivity assay (SYBR Green I, 48 h); type: cell-based; settings: Plasmodium falciparum, F32, 48 h
Procedure: (§1) Compounds were dissolved in DMSO and diluted in RPMI-1640 medium into five different concentrations (0.1–1000 nM). Each well of 96-well plates was filled with 100 µL drug at each concentration and 100 µL synchronized ring-stages of the ART-resistant strain F32-ART or its ART-susceptible twin strain F32-TEM at final parasitemia of 1% and 2% hematocrit. Plates were incubated for 48 h at 37°C and 5% CO2. The drugs were washed out in 1× phosphate-buffered saline (PBS) (Sigma-Aldrich), the plates were frozen and thawed, and then, the lysed parasites were transferred to black 96-well plates. SYBR Green I (Fisher Scientific, Illkirch, France) at a 2× concentration in a lysis buffer (20 mM TRIS base, pH 7.5, 20 mM EDTA, 0.008% wt/vol saponin, 0.08% wt/vol Triton X-100) was then added and the plates were incubated for 1 h at room temperature in the dark. Fluorescence was measured at 485 nm excitation and 528 nm emission in a VICTOR Nivo plate reader (Perkin Elmer, Waltham, USA) and the IC50s values were then calculated using Prism 7 (GraphPad, San Diego, USA).
(§2) ^[a] Parasites were exposed for 48 h of incubation in the presence of drugs, then parasite viability was determined using SYBR Green I. Mean of two independent experiments. DHA = dihydroartemisinin; SD = standard deviation.

[2] = tested on: F32-TEM (ART-sensitive) strain of P. falciparum; assay: as above; type: cell-based; settings: Plasmodium falciparum, F32, 48 h, read-out: IC50 (nM, mean ± SD) for P. falciparum (48 h), F32-TEM (ART-sensitive)
Procedure: as §1, §2

[3] = tested on: ring stages of NF54 strain of P. falciparum; assay: Exposure time dependence in drug activity (pLDH); type: cell-based; settings: Plasmodium falciparum
Procedure: Each well of 96-well plates was filled with 100 µL drug and 100 µL culture containing ring-stage P. falciparum (NF54 strain) parasites, which were mixed to obtain a final parasitemia of 1.0% to 1.5% and 1.0% hematocrit. Plates were incubated at 37°C in a standard gas mixture. After 3 h and 6 h, plates were centrifuged, cell pellets were washed as described above then returned to the incubator for an additional 69 h and 66 h, respectively. In parallel, the same experiment was left without the washing step, enabling continuous drug exposure throughout. Plates were processed using the pLDH method, and IC50 values were calculated as described above. Three independent experiments were performed using two technical replicates.
Figure S2: Exposure time dependence of antiparasitic activity against ring stages of CQ-sensitive strain NF54 of P. falciparum. Data associated to Figure 2B in the main text of the manuscript. Footnotes for table: ^[a] Synchronized ring-stage parasites were incubated in the presence of compounds at indicated times, drugs were removed by washing, and plates were incubated until 72 h.^[b] Parasites were incubated in the presence of compounds for 72 h. ^[a,b^] Experiments were performed in parallel (paired). Parasite viability was determined by parasite lactate dehydrogenase (pLDH) assay. Data are from three experiments performed in duplicate.^ [c] […] MFQ = mefloquine. DHA = dihydroartemisinin; SEM = standard error of the mean; N.S. = not statistically significant.

[4] = tested on: P. falciparum Dd2 strain; set-up: method as in PMID 31290221, PMID 34832911, PMID 38559731; settings: asynchronous culture, SYBR Green I; read-out: IC50 (nM, median ± SEM) for P. falciparum Dd2 strain; cited from earlier work
[5] = In vitro metabolic stability assay in microsomes; type: in vitro ADME; settings: for half-life at 1 µM: read-out: Degradation half-life; for microsomal CLint at 1 µM: 0.4 mg/mL
Procedure: In vitro microsomal stability assay was performed in duplicate in a 96-well microtiter plate, using a single-point experiment design ([42]). Test compounds (1 µM) were incubated individually in human (pool of 50, mixed gender), rat (pool of 711, male Sprague Dawley), and mouse (pool of 1,634, male CD1) liver microsomes (Xenotech, Kansas, USA) to a final protein concentration of 0.4 mg/mL, suspended in 0.1 M phosphate buffer (pH 7.4). Incubations were started by the addition of NADPH (1 mM) as a cofactor and shaken for 30 min at 37°C. The reactions were quenched by the addition of 300 µL of ice-cold acetonitrile containing an internal standard (carbamazepine, 0.0236 µg/mL) and centrifuged. The supernatant was transferred to a fresh 96-well plate and analyzed by liquid chromatography-tandem mass spectrometry (LC-MS/MS) (Agilent Rapid Resolution HPLC, AB SCIEX 4500 MS). The relative loss of the parent compound over time was monitored, and plots (concentration vs time) were prepared per compound to determine the first-order rate constant for compound depletion. This was in turn used to calculate half-life, in vitro intrinsic clearance (Clint), and in vivo hepatic extraction ratio ([43]).

[6] = tested on: F32-ART (resistant) early ring-stage parasites; assay: Ring-stage survival assay (RSA0-3h); type: cell-based, Plasmodium falciparum; settings: 700 nM, 6 h pulse, 66 h growth
Procedure: Early ring-stage parasites (0–3 h post-invasion) of F32-ART and F32-TEM strains highly synchronized by Percoll-Sorbitol treatment were exposed to 700 nM of the drugs or 0.1% DMSO (control) for 6 h. Each drug was tested in duplicate. Parasite pellets were then washed in RPMI-1640 medium before being placed in drug-free culture conditions with 10% human serum and incubated for 66 h ([44]). Survival rates were assessed microscopically by two independent microscopists by counting the parasites in 10,000 RBCs. Three independent experiments were performed.

[7] = read-out: IC50 (nM, mean ± SD) for P. falciparum (48 h), F32-ART (ART-resistant)
[8] = NF54, 6 h drug pulse, wash, incubated until 72 h, median ± SEM, read-out: IC50, 6 h + 66 h
[9] = NF54, 72 h continuous drug, median ± SEM, read-out: IC50, 72 h
[10] = NF54, read-out: IC50, 3 h + 69 h, 3 h drug pulse, wash, incubated until 72 h, median ± SEM
[11] = both sexes, pH 7.4, human liver microsomes
[12] = both sexes, human liver microsomes, pH 7.4
[13] = male, CD1, pH 7.4, mouse liver microsomes
[14] = male, CD1, mouse liver microsomes, pH 7.4
[15] = male, Sprague Dawley, pH 7.4, rat liver microsomes
[16] = male, Sprague Dawley, rat liver microsomes, pH 7.4

**Q.** For C[C@H]1[C@@H](O)O[C@@H]2O[C@@]3(C)CC[C@H]4[C@H](C)CC[C@@H]1[C@@]24OO3 [DHA, dihydroartemisinin, reference compound], which IC50 [1, 7] is on record?
**A.** The IC50 was 0.8 ± 0.8 nM.

**Q.** And the IC50 ([1]; read-out: IC50 in the standard chemosensitivity assay)?
**A.** Its IC50 is less than 5 nM.

**Q.** And the IC50 [2]?
**A.** The IC50 was 2 ± 0.2 nM.

**Q.** What about the IC50 [3, 8] of the same compound?
**A.** Its IC50 is 5 ± 0.5 nM.

**Q.** And the IC50 [3, 9]?
**A.** Its IC50 is 1.9 ± 0.2 nM.

**Q.** What about the IC50 [3, 10] of the same compound?
**A.** The IC50 was 100 ± 25 nM.

**Q.** For CC1CCC2C(C)C(OC(=O)CCC(=O)OCCNc3ccnc4cc(Cl)ccc34)OC3OC4(C)CCC1C32OO4 (stereo not shown) [Hybrid 2], which IC50 [1, 7] is on record?
**A.** Its IC50 is 4.5 ± 2.5 nM.

**Q.** And the IC50 [2]?
**A.** The IC50 was 4.8 ± 1.2 nM.

**Q.** What about the IC50 [3, 8] of the same compound?
**A.** The IC50 was 9 ± 1.5 nM.

**Q.** What about the IC50 [3, 9] of the same compound?
**A.** Its IC50 is 3.8 ± 0.4 nM.

**Q.** What about the IC50 [3, 10] of the same compound?
**A.** The IC50 was 75 ± 18 nM.

**Q.** And the IC50 [4]?
**A.** The IC50 was 2.3 ± 0.6 nM.

**Q.** And the half-life at 1 µM [5, 11]?
**A.** Its half-life at 1 µM is 4 min.

**Q.** What about the microsomal CLint at 1 µM [5, 12] of the same compound?
**A.** Its microsomal CLint at 1 µM is 479 µL/min/mg.

**Q.** And the “Drug remaining after 30 min” value ([5]; human liver microsomes)?
**A.** Its value is 0.3%.

**Q.** What about the half-life at 1 µM [5, 13] of the same compound?
**A.** Its half-life at 1 µM is 6 min.

**Q.** And the microsomal CLint at 1 µM [5, 14]?
**A.** The microsomal CLint at 1 µM was 275 µL/min/mg.

**Q.** What about the half-life at 1 µM [5, 15] of the same compound?
**A.** The half-life at 1 µM was 5 min.

**Q.** What about the microsomal CLint at 1 µM [5, 16] of the same compound?
**A.** The microsomal CLint at 1 µM was 376 µL/min/mg.

**Q.** And the “Drug remaining after 30 min” value ([5]; mouse liver microsomes)?
**A.** The value was 4%.

**Q.** What about the “Drug remaining after 30 min” value ([5]; rat liver microsomes) of the same compound?
**A.** Its value is 1%.

**Q.** What about the “Survival rate (%) from the RSA0-3h, F32-ART (resistant)” value ([6]; listed as 2) of the same compound?
**A.** The value was 14.8 ± 6%.

**Q.** What about the “Survival rate (%) from the RSA0-3h, F32-ART (resistant)” value ([6]; listed as hybrid 2) of the same compound?
**A.** The value was roughly 15%.

**Q.** What does the source list for COCCOCCOCCOCCn1c(-c2ccc(-n3cc(-c4ccc(OC5OC6OC7(C)CCC8C(C)CCC(C5C)C68OO7)cc4)nn3)cc2)nc2ccccc21 (stereo not shown) [Hybrid 1]?
**A.** IC50 [1, 7]: 4.2 ± 1.3 nM; IC50 [2]: 2.6 ± 0.6 nM; IC50 [3, 8]: 1.5 ± 0.3 nM; IC50 [3, 9]: 1.5 ± 0.1 nM; IC50 [3, 10]: 220 ± 80 nM; IC50 [4]: 3 ± 0.3 nM; half-life at 1 µM [5, 11]: 5 min; microsomal CLint at 1 µM [5, 12]: 379 µL/min/mg; Drug remaining after 30 min ([5]; human liver microsomes): 1%; half-life at 1 µM [5, 13]: 7 min; microsomal CLint at 1 µM [5, 14]: 240 µL/min/mg; half-life at 1 µM [5, 15]: 9 min; microsomal CLint at 1 µM [5, 16]: 186 µL/min/mg; Drug remaining after 30 min ([5]; mouse liver microsomes): 6%; Drug remaining after 30 min ([5]; rat liver microsomes): 10%; Survival rate (%) from the RSA0-3h, F32-ART (resistant) ([6]; listed as 1): 2.3 ± 0.7%; Survival rate (%) from the RSA0-3h, F32-ART (resistant) ([6]; listed as hybrid 1): ~2%
